Reference: US20260159497A1, “SOLID FORMS OF A COMPLEMENT FACTOR B INHIBITOR” (Novartis Pharma AG, priority 2022, published 2026)
Read-outs that look alike come from different tables or passages of the source.

Assay: Pharmacokinetic study after oral dosing, rat
Format: in vivo, SD Rat
Details: for Cmax / AUC(0-t) / concentration at 24 h: male, SD (Sprague-Dawley), rat, in vivo, po, oral, suspension in 0.5% methocel + 0.1% tween 80 in water, SD Rat male, Fed, 5 mL/kg; for AUC(0-t): read-out: AUC0-24 h; for concentration at 24 h: read-out: C24 h
Protocol: The pharmacokinetic profile of (S)-4-(2,2-difluoro-7-((5-methoxy-7-methyl-1H-indol-4-yl)methyl)-7-azaspiro[3.5]nonan-6-yl)benzoic acid was assessed in rats, dogs or non-human primates (NHPs) as the amorphous compound as a solution in 20% kleptose in water and as a suspension of Form A in 0.5% methocel+0.1% tween 80 in water.
Amorphous (S)-4-(2,2-difluoro-7-((5-methoxy-7-methyl-1H-indol-4-yl)methyl)-7-azaspiro[3.5]nonan-6-yl)benzoic acid was weighed into a glass vial with a magnetic stir bar to give formulations at dose concentrations of 0.1-1000 mg/kg. Approx. ⅓ the final volume of 20% kleptose (hydroxypropyl β-cyclodextrin, Aldrich, CAS #128446-35-5) in water was added to the vial (to afford either a 5 mL/kg or 10 mL/kg dose volume, depending on the species). The mixture was basified to a pH of 8.5 to 10 using dropwise addition of 2-5 M aqueous NaOH solution, with pH monitoring. The suspension was stirred, vortexed, and sonicated for 15-20 minutes to afford a homogenous mixture. The second ⅓ of the final volume of 20% kleptose was added to the vial and further stirred, vortexed, and sonicated for 15-20 minutes to afford a homogenous mixture. The pH was monitored and further pH adjustment to pH 8.5 to 10, if necessary, can be applied. The final ⅓ the final volume of 20% kleptose was added to the vial and further stirred, vortexed, and sonicated for 15-20 minutes to afford a homogenous solution. The pH of the solution was adjusted to a pH of 7.5 to 8.0 with dropwise addition of 1.0 M aqueous HCl solution with gentle stirring. The formulation should remain in solution.
Form A crystalline (S)-4-(2,2-difluoro-7-((5-methoxy-7-methyl-1H-indol-4-yl)methyl)-7-azaspiro[3.5]nonan-6-yl)benzoic acid was weighed into a glass vial with a magnetic stir bar to give formulations at dose concentrations of 0.1-1000 mg/kg. The crystalline material should preferably have a particle size with a D50 below 50 μm, and ideally with a D50 below 5 μm. The desired volume of 0.5% methocel (viscosity 400 cP, Aldrich, CAS #9004-67-5)/0.1% tween-80 (Aldrich, CAS #9005-65-6) was added (to afford a 5 mL/kg dose volume). The contents of the vial were stirred at 400-500 rpm on a stir-plate. Gentle vortex or bath sonication can be applied to break down any large clumps. The vial should be mixed well to ensure homogeneity right before animal dosing.

[1] = 30 mg/kg, 30 mg/kg, particle size D50 = 5.1 μm
[2] = 300 mg/kg, 300 mg/kg, particle size D50 = 5.1 μm
[3] = 300 mg/kg, 300 mg/kg, particle size D50 = 101 μm

For `COc1cc(C)c2[nH]ccc2c1CN1CCC2(C[C@H]1c1ccc(C(=O)O)cc1)CC(F)(F)C2` [Form A, (S)-4-(2,2-difluoro-7-((5-methoxy-7-methyl-1H-indol-4-yl)methyl)-7-azaspiro[3.5]nonan-6-yl)benzoic acid], the Cmax [1] was 6.1 µM, the AUC(0-t) [1] was 79.2 µM·h and the concentration at 24 h [1] was 1.9 µM. The Cmax [2] was 157 µM, the AUC(0-t) [2] was 958 µM·h and the concentration at 24 h [2] was 3.3 µM. It also gave a Cmax [3] of 80 µM, an AUC(0-t) [3] of 547 µM·h and a concentration at 24 h [3] of 2.7 µM. The “Cmax, AUC0-24 and C24h compared with the amorphous form” value (oral dosing, smaller particle size) was “higher”.
